Measured values: ChEMBL document CHEMBL1201862, “PubChem BioAssay data set” (2004)
Activity calls are given as the source filed them.

Experiments:
[1] = NIH-3T3 fibroblast cytotoxicity, dose response, cytotoxicity control, cell-based, fluorescence, Alamar Blue, secondary assay (AID 2327); assay type: functional;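 also: NIH-3T3 mouse fibroblasts cultured with fluconazole at 8 µg/mL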
[2] = fluconazole-exposed Candida albicans growth modulators – fluorescence, retest, confirmation (AID 2467); assay type: functional, cell-based
[3] = system: H9c2; assay: cells; assay type: functional, cell-based; conditions: Rattus norvegicus, H9c2, Myocardium;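 also: confirmatory concentration-response retest of ultra-high-throughput screening hits for modulation of myocardial damage; cell death induced by hydrogen peroxide oxidative stress; compound pretreatment for 60 min then peroxide exposure for 2 h; potency is for protecting the cells against peroxide damage rather than for killing them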
[4] = target: Heat shock protein HSP 90-alpha (Homo sapiens, UniProt P07900); assay type: functional, organism-based
[5] = cells; assay type: functional, cell-based
[6] = cells; assay type: functional, cell-based; remark: listed apart in the source
[7] = P. falciparum Dd2 growth inhibitors, dose response, SYBR Green, cherry-picked samples (AID 1159567); assay type: functional, cell-based
[8] = blockers of HIV-1 ZM109 envelope-driven cell-cell fusion – HeLa effector, CEM target cells, luciferase, cherry-pick, dose response (AID 652058); assay type: functional, cell-based;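 also: luciferase signal from HIV-1 Env mediated cell-cell fusion of effector and target cells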
[9] = off-target signal loss in HeLa-CEM21 co-culture – HeLa F-luc CTL cells, cherry-picked, counter-screen for HIV-1 Env fusion inhibitor project, dose response (AID 652040); assay type: functional, cell-based;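 also: potency for signal decrease marking cytotoxic or nonspecific inhibition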
[10] = blockers of HIV-1 envelope-mediated cell-cell fusion – cherry-pick, dose response (AID 652057); assay type: functional, cell-based
[11] = target: T1, Ubiquitin-conjugating enzyme E2 N (Homo sapiens, UniProt P61088); assay type: functional;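 also: Dose-response confirmation in a TR-FRET assay detecting UBC13-driven polyubiquitin chain formation, inhibition measured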
T1 sequence (P61088 whole entry): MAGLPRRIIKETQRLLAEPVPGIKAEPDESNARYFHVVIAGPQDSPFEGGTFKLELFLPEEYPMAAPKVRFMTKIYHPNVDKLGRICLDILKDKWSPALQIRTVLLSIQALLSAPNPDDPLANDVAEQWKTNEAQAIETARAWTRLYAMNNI

[12] = HIV-1 AD8 envelope cell-cell fusion blockers – cherry-pick, dose response (AID 652062); assay type: functional, cell-based;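 also: luciferase signal from cell-cell fusion driven by HIV-1 clade B AD8 Env; potency is for inhibitors of fusion seen as a drop in luminescence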
[13] = target: T2, Streptokinase A (Streptococcus pyogenes serotype M1, UniProt P10520); assay: viability-normalized secreted streptokinase activity reduction – plasminogen activation absorbance, OD405, dose response (AID 1914); assay type: functional, Streptococcus pyogenes M1 GAS;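 also: secreted streptokinase activity via plasminogen activation per viability signal from cell pellet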
T2 sequence (P10520 whole entry): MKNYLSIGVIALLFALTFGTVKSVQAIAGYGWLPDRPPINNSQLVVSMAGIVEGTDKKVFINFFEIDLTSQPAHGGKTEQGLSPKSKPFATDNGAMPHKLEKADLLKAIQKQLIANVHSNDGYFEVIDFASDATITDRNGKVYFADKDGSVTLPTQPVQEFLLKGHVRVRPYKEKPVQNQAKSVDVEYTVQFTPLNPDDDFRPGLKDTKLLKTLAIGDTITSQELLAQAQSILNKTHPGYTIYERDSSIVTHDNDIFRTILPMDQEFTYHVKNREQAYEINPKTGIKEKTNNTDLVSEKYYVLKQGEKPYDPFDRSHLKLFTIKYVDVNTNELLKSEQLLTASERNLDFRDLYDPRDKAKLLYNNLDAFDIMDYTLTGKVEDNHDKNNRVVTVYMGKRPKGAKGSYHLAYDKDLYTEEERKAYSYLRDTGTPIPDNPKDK

[14] = system: Streptococcus sp. 'group A'; assay: Streptococcus pyogenes SK(-)GAS viability under kanamycin – luminescence, BacTiterGlo, confirmation, counter-screen for streptokinase expression inhibitor project, dose response (AID 1900); assay type: functional, organism-based
[15] = system: Streptococcus; assay: GAS UMAA2166 growth inhibition – luminescence, BacTiterGlo, counter-screen for streptokinase expression inhibitor project, dose response (AID 1915); assay type: functional, organism-based;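 also: potency for reduction of bacterial viability or growth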
[16] = target: Nonstructural protein 1 (Influenza A virus, UniProt Q194T2); assay type: functional, Influenza A virus (A/California/07/2009(H1N1))
[17] = NIH3T3 cell viability loss – ATP luminescence, mouse fibroblasts, counter-screen, dose response (AID 2010); assay type: functional, cell-based;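 also: cells exposed to compound for about 90 hours before reading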
[18] = system: INS1; assay: INS-1E survival protection against cytokine death – cell-based, luminescence, retest, dose response (AID 449756); assay type: functional; conditions: Rattus norvegicus;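 also: cell death triggered by IL-1 beta plus TNF-alpha plus IFN-gamma mixture; protective hits raise ATP signal compared with cytokine alone wells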
[19] = Trypanosoma cruzi growth suppression in host cells – NIH3T3 host cells, beta-gal luminescence, confirmation (AID 2044); assay type: functional, cell-based;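 also: intracellular parasites grown in NIH/3T3 mouse fibroblasts as host cells; luminescent beta-galactosidase reporter signal from transgenic T. cruzi replicating inside host cells; inhibitors lower the luminescence signal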
[20] = target: T3, RNA-binding protein pos-1 (Caenorhabditis elegans, UniProt G5EF15); assay: disruptors of C. elegans POS-1 RNA interaction – biochemical, fluorescence polarization, dose response (AID 1964);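 also: purified POS-1 fused to maltose binding protein made in E. coli; potency of compounds blocking POS-1 binding to fluorescent RNA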
T3 sequence (G5EF15 whole entry): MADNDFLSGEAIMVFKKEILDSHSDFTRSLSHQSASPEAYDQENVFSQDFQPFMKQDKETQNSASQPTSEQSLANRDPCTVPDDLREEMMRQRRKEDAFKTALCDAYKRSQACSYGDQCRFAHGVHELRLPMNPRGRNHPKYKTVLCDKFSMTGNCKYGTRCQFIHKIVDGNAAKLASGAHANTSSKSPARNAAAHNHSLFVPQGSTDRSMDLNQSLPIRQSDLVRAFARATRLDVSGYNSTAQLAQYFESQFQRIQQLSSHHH

[21] = target: Genome polyprotein (dengue virus type 2, UniProt P29990); assay: flavivirus cap methylation enzyme inhibition – biochemical, confirmation dose response, primary screen (AID 588689); assay type: functional
[22] = target: T4, Zinc finger protein mex-5 (Caenorhabditis elegans, UniProt Q9XUB2); assay: potency of MEX-5 RNA-binding blockers – biochemical, C. elegans, fluorescence polarization, dose response (AID 1960)
T4 sequence (Q9XUB2 whole entry): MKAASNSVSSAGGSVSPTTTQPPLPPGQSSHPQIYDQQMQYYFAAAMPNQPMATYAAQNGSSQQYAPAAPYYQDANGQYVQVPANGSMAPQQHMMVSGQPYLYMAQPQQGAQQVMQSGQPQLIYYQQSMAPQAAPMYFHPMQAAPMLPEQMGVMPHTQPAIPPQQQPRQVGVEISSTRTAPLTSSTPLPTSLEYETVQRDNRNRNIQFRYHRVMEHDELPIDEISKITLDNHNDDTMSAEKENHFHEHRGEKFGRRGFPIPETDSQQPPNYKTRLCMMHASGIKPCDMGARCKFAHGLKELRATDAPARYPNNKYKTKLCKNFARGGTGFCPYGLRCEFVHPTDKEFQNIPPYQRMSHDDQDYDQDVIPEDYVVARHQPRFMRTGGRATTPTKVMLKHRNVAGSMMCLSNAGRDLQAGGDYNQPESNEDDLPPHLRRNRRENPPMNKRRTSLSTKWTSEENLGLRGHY

[23] = target: T5, Heat shock factor protein 1 (Mus musculus, UniProt P38532); assay: decrease of HSF1-responsive luciferase luminescence – cell-based, NIH3T3, dose retest, confirmation (AID 2382); assay type: functional;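 also: NIH3T3 fibroblasts with HSF1-driven luciferase reporter stressed by proteasome inhibitor MG132; luminescence from HSF1-driven luciferase expression after 8 hours of MG132 stress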
T5 sequence (P38532 whole entry): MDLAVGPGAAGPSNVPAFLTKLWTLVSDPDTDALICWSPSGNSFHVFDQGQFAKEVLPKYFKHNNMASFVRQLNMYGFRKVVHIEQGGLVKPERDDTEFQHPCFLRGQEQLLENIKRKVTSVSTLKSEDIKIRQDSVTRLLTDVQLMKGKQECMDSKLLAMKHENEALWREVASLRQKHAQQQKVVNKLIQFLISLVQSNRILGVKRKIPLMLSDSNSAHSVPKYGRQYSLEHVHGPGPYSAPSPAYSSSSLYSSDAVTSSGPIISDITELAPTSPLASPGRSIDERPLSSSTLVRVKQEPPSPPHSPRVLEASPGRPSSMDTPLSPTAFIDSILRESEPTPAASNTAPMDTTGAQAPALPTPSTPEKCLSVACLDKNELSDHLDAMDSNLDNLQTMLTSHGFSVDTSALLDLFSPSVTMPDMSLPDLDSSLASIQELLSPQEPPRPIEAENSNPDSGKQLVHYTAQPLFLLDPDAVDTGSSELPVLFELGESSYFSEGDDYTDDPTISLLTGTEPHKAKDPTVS

[24] = target: DNA dC->dU-editing enzyme APOBEC-3G (Homo sapiens, UniProt Q9HC16); assay: Dose Response confirmation of small molecule APOBEC3G DNA Deaminase Inhibitors via a fluorescence-based single-stranded DNA deaminase assay. [Related pubchem assays (depositor defined):AID493012, AID493028]; assay type: functional
Sequence of DNA dC->dU-editing enzyme APOBEC-3G (Q9HC16 whole entry): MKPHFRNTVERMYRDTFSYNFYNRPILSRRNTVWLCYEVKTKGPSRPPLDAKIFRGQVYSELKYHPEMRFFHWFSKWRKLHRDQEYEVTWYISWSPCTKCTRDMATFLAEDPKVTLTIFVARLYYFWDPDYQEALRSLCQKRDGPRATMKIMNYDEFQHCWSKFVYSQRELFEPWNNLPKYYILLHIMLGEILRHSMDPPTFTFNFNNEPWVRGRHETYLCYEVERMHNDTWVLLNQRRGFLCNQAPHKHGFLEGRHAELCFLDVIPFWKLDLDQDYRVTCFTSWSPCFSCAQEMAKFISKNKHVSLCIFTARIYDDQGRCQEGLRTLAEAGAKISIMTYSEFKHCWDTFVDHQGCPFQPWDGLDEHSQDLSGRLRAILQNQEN

Sequence of Nonstructural protein 1 (Q194T2 whole entry): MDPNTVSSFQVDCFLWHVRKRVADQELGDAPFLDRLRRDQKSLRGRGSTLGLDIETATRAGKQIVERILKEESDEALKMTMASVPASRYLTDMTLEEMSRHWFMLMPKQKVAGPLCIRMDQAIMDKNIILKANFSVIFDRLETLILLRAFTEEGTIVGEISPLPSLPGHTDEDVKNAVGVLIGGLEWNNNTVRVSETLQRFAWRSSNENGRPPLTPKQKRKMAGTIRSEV
Sequence of Genome polyprotein (P29990 2492-3391 limits assumed): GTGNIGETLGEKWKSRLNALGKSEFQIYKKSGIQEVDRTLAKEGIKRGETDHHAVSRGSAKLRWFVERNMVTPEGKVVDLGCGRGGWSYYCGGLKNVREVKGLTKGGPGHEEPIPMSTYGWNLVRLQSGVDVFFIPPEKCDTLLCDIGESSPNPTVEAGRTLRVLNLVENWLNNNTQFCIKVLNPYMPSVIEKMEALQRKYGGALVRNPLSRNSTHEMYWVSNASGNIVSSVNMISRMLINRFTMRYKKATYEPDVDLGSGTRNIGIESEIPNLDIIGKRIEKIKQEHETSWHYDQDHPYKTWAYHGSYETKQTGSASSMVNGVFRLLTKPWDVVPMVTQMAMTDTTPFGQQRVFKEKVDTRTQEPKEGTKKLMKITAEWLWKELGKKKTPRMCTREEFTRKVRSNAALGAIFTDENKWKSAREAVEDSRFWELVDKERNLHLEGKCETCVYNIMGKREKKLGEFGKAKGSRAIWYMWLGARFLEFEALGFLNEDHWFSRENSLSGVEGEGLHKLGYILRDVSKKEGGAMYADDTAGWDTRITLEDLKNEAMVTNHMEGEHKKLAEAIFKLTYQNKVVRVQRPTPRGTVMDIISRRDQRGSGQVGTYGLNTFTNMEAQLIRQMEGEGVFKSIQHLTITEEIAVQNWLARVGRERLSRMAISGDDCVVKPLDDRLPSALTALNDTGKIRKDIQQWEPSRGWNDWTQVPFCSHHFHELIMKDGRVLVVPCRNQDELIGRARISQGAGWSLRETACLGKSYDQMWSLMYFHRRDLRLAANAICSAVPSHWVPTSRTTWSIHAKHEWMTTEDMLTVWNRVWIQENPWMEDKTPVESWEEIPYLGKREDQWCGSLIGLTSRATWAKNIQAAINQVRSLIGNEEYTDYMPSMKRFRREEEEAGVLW

Cc1ccc(Sc2ncccc2C(=O)NCc2cc([N+](=O)[O-])ccc2O)c(C)c1
EC50 [1]: > 150 µM (inactive)
EC50 [2]: 1.73 µM (active)

CN(C(=O)Cn1nc(C(=O)O)c2ccccc2c1=O)C1(C#N)CCCCC1
IC50 [3]: > 79 µM (inactive)

COc1ccc2c(c1)OC[C@H]1[C@H]2N2C(=O)c3cc(Br)ccc3NC(=O)[C@@]2(C)[C@H]1c1ccccc1
AC50 [4]: 0.837 µM (active)

O=C(N/N=C/c1cccnc1)c1ccc(NC(=O)c2ccc(Cl)cc2)cc1
EC50 [5]: > 350 µM (not active)
EC50 [6]: > 350 µM (not active)

CC(=O)c1ccc(NC(=O)Nc2cccc3ccccc23)cc1
EC50 [1]: 19.1 µM (inconclusive)
EC50 [2]: > 38 µM (not active)

CC(C)Cn1c(/C=N/Nc2nc3ccccc3[nH]2)nc2ccccc21
EC50 [5]: > 350 µM (not active)
EC50 [6]: 52.5 µM (active)

CCCCN=C(S)Nc1ccc2c[nH]nc2c1
EC50 [5]: > 350 µM (not active)
EC50 [6]: > 350 µM (not active)

O=C(C1CCCC1)N1CC[C@@H]2[C@H]1c1cc(C3=CCCCC3)ccc1N[C@@H]2CO
AC50 [7]: 2.76 µM (active)

COC(=O)c1ccccc1NC(=O)c1nc2nc(C)cc(C)n2n1
IC50 [3]: > 79 µM (inactive)

COc1ccccc1CN1C(=O)CN(C2CCCCCC2)C(=O)C1c1ccc(F)cc1 (configuration not stated)
AC50 [8]: 20.9 µM (active)
AC50 [9]: 60.9 µM (active)
AC50 [10]: 30.9 µM (active)

Cc1ccc(N2CCN(C3=NC(=O)/C(=C\c4c[nH]nc4-c4ccccc4)S3)CC2)cc1
EC50 [1]: > 150 µM (inactive)
EC50 [2]: 8.34 µM (active)

O=S1(=O)CC(O)C(N=Nc2c(O)n(Cc3ccccc3)c3ccccc23)C1 (configuration not stated)
IC50 [11]: > 20 µM (inactive)

CCCCC(=O)Nc1ccc(NC(=O)CC)cc1OC
EC50 [5]: > 350 µM (not active)
EC50 [6]: > 350 µM (not active)

COc1ccc(N2C(=O)NC(=O)/C(=C(/C)NCCCn3ccnc3)C2=O)cc1
AC50 [8]: 4.33 µM (active)
AC50 [9]: 19.5 µM (active)
AC50 [10]: 2.49 µM (active)
AC50 [12]: 6.76 µM (active)

Cc1cc2c3c(c1)C1(SCC(=O)N1c1ccc(F)cc1)C(=O)N3C(C)(C)CC2C (configuration not stated)
AC50 [9]: > 32 µM (inactive)
AC50 [10]: 3.4 µM (active)
AC50 [12]: 9.73 µM (active)

O=C(CCc1nc(O)c2ccccc2n1)Nc1ccc(N2CCCCC2)cc1
IC50 [3]: > 79 µM (inactive)

O=C(NNC(=S)NC(=O)c1ccccc1)c1ccc([N+](=O)[O-])cc1
EC50 [13]: > 150 µM (not active)
EC50 [14]: 4.22 µM (active)
EC50 [1]: > 160 µM (inactive)
EC50 [15]: 15.5 µM (active)
EC50 [2]: 1.46 µM (active)

CCCN1C[C@@H](C)[C@H](OC)CN(C)C(=O)c2ccc(NC(=O)c3cccc(F)c3)cc2OC[C@H]1C
AC50 [7]: 5.34 µM (active)

O=C(O)c1cccc2c1Cc1cc(Cl)ccc1-2
AC50 [4]: 0.723 µM (active)

CN(C)Cc1ccc(-c2nc3cccc4c3n2CCNC4=O)cc1
IC50 [3]: > 79 µM (inactive)

O=C(COC(=O)c1ccc([N+](=O)[O-])o1)Nc1cccc(S(=O)(=O)N2CCCCC2)c1
IC50 [3]: > 79 µM (inactive)

CC(=NNC(=S)N1CC2CCC(CC2)C1)c1cnccn1
AC50 [4]: 4.43 µM (active)
IC50 [16]: 3.16 µM (active)

C/C(=N\NC(=O)c1cc(-c2cccnc2)nc2ccccc12)c1ccccc1O
EC50 [17]: 2.18 µM (active)
EC50 [5]: > 350 µM (not active)
EC50 [6]: 16.8 µM (active)
AC50 [18]: 0.971 µM (active)
EC50 [19]: 0.834 µM (active)

O=C(C[C@@H]1C=C[C@@H](NC(=O)c2ccccc2)[C@H](CO)O1)NCc1ccc(Oc2ccccc2)cc1
AC50 [8]: 38.2 µM (active)

OCc1ccnc2c(O)cccc12
EC50 [17]: > 30 µM (not active)
IC50 [16]: 10.2 µM (active)
EC50 [1]: 79.8 µM (active)
EC50 [19]: 3.36 µM (active)
EC50 [2]: > 38 µM (not active)

CC1(OC(=O)c2ccco2)C(=O)C=C2C=C(C3CC3)OC=C2C1=O (configuration not stated)
EC50 [20]: 20.2 µM (active)
IC50 [21]: > 100 µM (active)
EC50 [22]: 18.3 µM (active)

Cc1noc(NC(=O)c2ccc(Cl)c(Cl)c2)c1Cl
EC50 [1]: > 150 µM (inactive)
EC50 [2]: 0.591 µM (active)

CCC[C@@H](CN1CCC[C@H]1CN1C(N)=NC[C@@H]1Cc1ccccc1)N1C[C@@H]([C@H](C)CC)N(CCc2ccc(Cl)c(Cl)c2)C1=N
IC50 [11]: > 20 µM (inactive)

Cc1cc(NC(=O)CSc2nc3c(c(=O)n2-c2ccc(Cl)cc2)SCC3)no1
EC50 [5]: > 350 µM (not active)
EC50 [6]: > 350 µM (not active)

NC(=O)c1nsc(C(=O)N(c2cccc(F)c2)C(C(=O)NCC2CCCO2)c2c[nH]c3ccccc23)c1N (configuration not stated)
IC50 [11]: > 20 µM (inactive)

COc1ccc(/C=N/n2c(S)nnc2-c2cc(C)[nH]n2)cc1OC
EC50 [23]: > 195 µM (not active)
IC50 [24]: 8.3 µM (active)

CC(=O)N1CCN(C(=O)CCc2nc(O)c3ccccc3n2)CC1
IC50 [3]: > 79 µM (inactive)

COc1cc(-c2nnc(COC(=O)c3cc(C)nc4ccc(C)cc34)o2)cc(OC)c1OC
IC50 [3]: 12.3 µM (active)

COc1ccc(CC(=S)N2CCOCC2)cc1
IC50 [24]: 46.1 µM (active)

C#CCOCCOCCOCCNc1nc(N2CCN(C(=O)[C@H](CO)n3cc([C@@H](N)C(C)C)nn3)CC2)nc(N2CCN(C(=O)[C@H](CCC(=O)O)n3cc([C@@H](N)CCCCN)nn3)CC2)n1
IC50 [11]: > 20 µM (inactive)
